{"source": "patent US20060079461A1", "about": "“Treatment of multiple myeloma by inhibition of p38 MAP kinase” (Scios, Inc., priority 2003, published 2006)", "key": {"[1]": {"test_system": "VEGF", "assay": "VEGF secretion from MM contact-activated BMSC", "assay_type": "cell-based, human", "source_text": "(§1) p38 MAPK controls secretion of these factors in-vitro in systems representing the BM milieu."}, "[2]": {"test_system": "HSP-27", "assay": "HSP-27 phosphorylation in MM cells (p38 MAPK activity)", "assay_type": "cell-based, human", "protocol": "(§2) Total cell lysates are immunoprecipitated with anti-MAPKAPK-2 antibody and subjected to in vitro kinase assays using purified GST-Hsp27 as substrate. To examine Hsp27 phosphorylation in MM and transformed B cells, U266, IM9 and RPMI8226 cells are incubated either with DMSO or with 0.5 μM of a p38 MAPK inhibitor and cell lysates are immunoblotted with antibodies to phospho-Hsp27 (Ser 82) and Hsp27.\nIn additional experiments, the p38 MAPK inhibitors are tested for their ability to inhibit Hsp27 phosphorylation. U266, IM9 and RPMI8226 cells are incubated with 0.5 μM of the p38 MAPK inhibitor for 1 hour and Hsp27 proteins are immunoprecipitated with agarose-conjugated Hsp27 antibody, followed by immunoblotting with anti-phospho Hsp27 (Ser 78) antibody.\nSpecific antibodies to p38 MAP kinase are from Santa Cruz Biotechnology (Santa Cruz, Calif.). Antibodies to phospho-p38 MAP kinase (T180/Y182) and phospho-Hsp27 (S82) are from Cell Signaling (Beverly, Mass.). Antibodies to Hsp27 and phospho-Hsp27 (S78) are from Upstate Biotechnology (Lake Placid, N.Y.). Anti-MAPKAPK-2 is from StressGen (San Diego, Calif.) while anti-GAPDH is from Biogenesis Ltd. (Poole, UK)."}, "[3]": {"test_system": "HSP-27", "assay": "HSP-27 phosphorylation in BMSC", "assay_type": "cell-based, human"}, "[4]": {"test_system": "MKK3 and MKK6", "assay": "Activation of p38 MAPK by upstream kinases"}, "[5]": {"test_system": "BMSC", "assay": "BMSC viability, MTS assay", "assay_type": "cell-based, human", "conditions": "tested up to 50-fold excess of active concentration", "protocol": "Neither p38 MAPK inhibition nor high concentrations of p38 MAPK inhibitor (tested up to 50-fold excess of active concentration) affected BMSC viability (FIG. 4). Viability was measured using a standard enzymatic assay of respiratory activity, MTS (3-(4,5-dimethylthiazol-2-yl)-5-(3-carboxymethoxyphenyl)-2-(4-sulfophenyl)-2H-tetrazolium). Results obtained with the p38 MAPK inhibitor are in agreement with published results using a different p38α MAPK inhibitor."}, "[6]": {"test_system": "MM cell lines (U266B, RPMI, ARH-77, and IM9)", "assay": "MM cell proliferation", "assay_type": "cell-based, human", "conditions": "72-hour exposure; each of four MM cell lines (U266B, RPMI, ARH-77, IM9)"}, "[7]": {"test_system": "TNF-α", "assay": "LPS-induced TNF-α secretion in whole blood", "assay_type": "cell-based, human", "protocol": "Other in vitro assays can assess the production of TNF-α as a correlation to p38 MAP kinase activity. One such example is a Human Whole Blood Assay. In this assay, venous blood is collected from, e.g., healthy male volunteers into a heparinized syringe and is used within 2 hours of collection. Test compounds are dissolved in 100% DMSO and 1 μl aliquots of drug concentrations ranging from 0 to 1 mM are dispensed into quadruplicate wells of a 24-well microtiter plate (Nunclon Delta SI, Applied Scientific Co., San Francisco, Calif.). Whole blood is added at a volume of 1 ml/well and the mixture is incubated for 15 minutes with constant shaking (Titer Plate Shaker, Lab-Line Instruments, Inc., Melrose Park, Ill.) at a humidified atmosphere of 5% CO2 at 37° C. Whole blood is cultured either undiluted or at a final dilution of 1:10 with RPMI 1640 (Gibco 31800+NaHCO3, Life Technologies, Rockville, Md. and Scios, Inc., Sunnyvale, Calif.). At the end of the incubation period, 10 μl of LPS (E. coli 01111:B4, Sigma Chemical Co., St. Louis, Mo.) is added to each well to a final concentration of 1 or 0.1 μg/ml for undiluted or 1:10 diluted whole blood, respectively. The incubation is continued for an additional 2 hours. The reaction is stopped by placing the microtiter plates in an ice bath, and plasma or cell-free supernates are collected by centrifugation at 3000 rpm for 10 minutes at 4° C. […]"}, "[8]": {"test_system": "COX-2 mRNA", "assay": "LPS-induced COX-2 mRNA", "assay_type": "cell-based"}, "[9]": {"test_system": "PGE2", "assay": "PGE2 levels in LPS-induced human whole blood", "assay_type": "cell-based"}, "[10]": {"target": "T1, purified COX-2 enzyme (Homo sapiens, UniProt P35354)", "T1 sequence (P35354 18-604)": "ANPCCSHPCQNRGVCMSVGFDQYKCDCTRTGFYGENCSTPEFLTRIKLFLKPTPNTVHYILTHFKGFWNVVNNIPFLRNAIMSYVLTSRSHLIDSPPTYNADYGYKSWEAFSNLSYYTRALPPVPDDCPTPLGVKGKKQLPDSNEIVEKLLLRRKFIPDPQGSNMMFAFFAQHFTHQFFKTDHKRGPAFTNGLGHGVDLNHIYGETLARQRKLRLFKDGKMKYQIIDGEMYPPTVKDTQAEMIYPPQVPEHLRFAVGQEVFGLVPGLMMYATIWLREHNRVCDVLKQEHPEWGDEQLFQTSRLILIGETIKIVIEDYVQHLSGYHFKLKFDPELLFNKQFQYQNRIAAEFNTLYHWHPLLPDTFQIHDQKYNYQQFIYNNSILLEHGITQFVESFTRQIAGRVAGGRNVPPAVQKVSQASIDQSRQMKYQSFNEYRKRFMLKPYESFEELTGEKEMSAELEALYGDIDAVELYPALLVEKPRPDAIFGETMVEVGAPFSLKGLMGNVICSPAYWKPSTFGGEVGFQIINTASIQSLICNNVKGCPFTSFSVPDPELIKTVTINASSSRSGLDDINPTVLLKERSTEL", "assay": "Purified COX-2 enzyme activity", "assay_type": "biochemical"}, "[11]": {"test_system": "IL-1β", "assay": "LPS-induced IL-1β release in human whole blood", "assay_type": "cell-based", "conditions": "human whole blood (undiluted)", "source_text": "IL-1β illustrates the importance of amplification loops in myeloma-induced cytokine stimulation. IL-1, plays a well-documented role in the induction of multiple cytokines in a “cytokine network” of feedback loops, including strong induction of IL-6. The ability of IL-1 to increase mRNA expression and induce secretion of the MM-relevant cytokines from MM/BMSC cultures is evidence of this role."}, "[12]": {"test_system": "IL-11", "assay": "IL-1 and TGFβ induction of IL-11 in BMSC cultures", "assay_type": "cell-based, human", "conditions": "100 nM", "source_text": "as §1"}, "[13]": {"test_system": "IL-11", "assay": "IL-1 and TGFβ induction of IL-11 in MM/BMSC cultures", "assay_type": "cell-based, human", "conditions": "100 nM", "source_text": "as §1"}, "[14]": {"test_system": "MM cells", "assay": "MM cell viability and proliferation with SN-50 co-exposure", "assay_type": "cell-based", "conditions": "co-exposure with SN-50", "source_text": "SN-50 is a cell-permeable specific inhibitor of NF-kappaB nuclear translocation and activity. Nuclear factor-kappaB has been reported to confer significant survival potential in a variety of tumors, including MM cells."}, "[15]": {"test_system": "MAPKAPK-2", "assay": "MAPKAPK-2 in vitro kinase assay with GST-Hsp27 substrate", "assay_type": "cell-based, human", "protocol": "as §2"}, "[16]": {"test_system": "Hsp27", "assay": "Total Hsp27 levels in MM cells", "assay_type": "cell-based, human", "conditions": "even after prolonged incubation", "protocol": "as §2"}, "[17]": {"test_system": "human myeloma (RPMI8266) tumor", "assay": "Beige-nude-xid mouse xenograft plasmacytoma model", "assay_type": "in vivo", "source_text": "Human-multiple myeloma (MM) is an incurable neoplasm of terminally differentiated B cells and MM disease progression is affected by immunoregulatory elements such as IL-6 and other cytokines. […]"}, "[18]": {"test_system": "multiple myeloma", "assay": "Treatment of a patient with multiple myeloma", "assay_type": "in vivo, human", "source_text": "A patient is diagnosed with multiple myeloma. The patient presents with MM cells with rapid growth rates, which displace osteoblasts, and disrupting the balance of bone creation and destruction. A number of MM-related cytokines, such as IL-6, VEGF, IL-11, and PGE-2 are detectable. […] MM cell growth is inhibited and MM-related cytokine product is reduced."}, "[19]": {"conditions": "in combination with an apoptosis promoting agent"}}, "data": [{"compound": "COC(=O)C(=O)c1cn(C(=O)c2ccc(Cl)cc2)c2cc(OC)c(C(=O)N3CCC(Cc4ccccc4)CC3)cc12", "note": "[Compound 4]", "values": [{"measurement": "VEGF secretion", "setting": "[1]", "value": "inhibited"}]}, {"compound": "C[C@@H]1CN(Cc2ccc(F)cc2)[C@@H](C)CN1C(=O)c1cc2c(C(=O)C(=O)N(C)C)cn(C)c2cc1Cl", "note": "[Compound 57]", "values": [{"measurement": "phosphorylation of HSP-27", "setting": "[2]; MM cells", "value": "blocked phosphorylation of HSP-27 completely"}, {"measurement": "Hsp27 phosphorylation", "setting": "[2]; U266, IM9, RPMI8226, cell lysates or immunoprecipitation assays, 0.5 μM", "value": "inhibits"}, {"measurement": "p38 MAPK activity", "setting": "[2]; immunodetection of p38 MAPK kinase target HSP-27", "value": "fully suppressed"}, {"measurement": "phosphorylation of HSP-27", "setting": "[3]", "value": "blocked phosphorylation of HSP-27 completely"}, {"measurement": "direct activation of the p38 MAPK enzyme or activity of kinases upstream of p38 MAPK", "setting": "[4]", "value": "not the direct activation of the p38 MAPK enzyme or the activity of kinases upstream of p38 MAPK"}, {"measurement": "BMSC viability", "setting": "[5]", "value": "Neither p38α MAPK inhibition nor high concentrations of Compound 57 (tested up to 50-fold excess of active concentration) affected BMSC viability"}, {"measurement": "reduction in proliferation", "setting": "[6]", "value": "about 20%"}, {"measurement": "LPS-induced TNF-α secretion", "setting": "[7]", "value": "dose-dependent reduction"}, {"measurement": "LPS-induced COX-2 mRNA", "setting": "[8]", "value": "inhibited"}, {"measurement": "PGE2 levels", "setting": "[9]", "value": "reduced"}, {"measurement": "activity of the purified COX-2 enzyme", "setting": "[10]", "value": "did not directly inhibit"}, {"measurement": "LPS-induced IL-1β release", "setting": "[11]", "value": "dose-dependent reduction"}, {"measurement": "IL-1 and TGFβ induction of IL-11 at the mRNA and protein levels", "setting": "[12]", "value": "blocked"}, {"measurement": "IL-1 and TGFβ induction of IL-11 at the mRNA and protein levels", "setting": "[13]", "value": "blocked"}, {"measurement": "reduction of MM cell viability and proliferation caused by SN-50-induced NFκB inhibition", "setting": "[14]", "value": "enhances the reduction of MM cell viability and proliferation"}, {"measurement": "activity of downstream substrate MAPKAPK-2", "setting": "[15]", "value": "suppresses"}, {"measurement": "total Hsp27 levels", "setting": "[16]", "value": "does not affect"}, {"measurement": "tumor volume, histological assessment", "setting": "[17]; at the end of dosing, versus vehicle", "value": "significant reduction"}, {"measurement": "number of neoformed microvessels", "setting": "[17]; histological assessment at the end of dosing", "value": "significant reduction"}, {"measurement": "HSP27 expression in tumor cells", "setting": "[17]; mouse, in vivo", "value": "significantly reduces"}, {"measurement": "p38 expression in tumor cells", "setting": "[17]; mouse, in vivo", "value": "significantly reduces"}, {"measurement": "tumor volume", "setting": "[17]; palpable tumors (~200 mm^3), 90 mg/kg/bid oral gavage, 21 days", "value": "significantly reduces"}, {"measurement": "tumor volume", "setting": "[17]; treatment initiated at pronounced tumor size (~800 mm^3)", "value": "significant reduction"}, {"measurement": "MM cell growth", "setting": "[18]; [19]", "value": "inhibited"}, {"measurement": "MM-related cytokine product", "setting": "[18]; [19]", "value": "reduced"}, {"measurement": "MM cell growth", "setting": "[18]; therapeutic amount, alone", "value": "inhibited"}, {"measurement": "MM-related cytokine product", "setting": "[18]; therapeutic amount, alone", "value": "reduced"}]}]}
